Experimental data as given in US20090018134A1, “Compounds - 945” (AstraZeneca AB, priority 2007, published 2009).
pIC50: −log10 of the molar value. Where two headings read alike, the source gives them in different places.

Target: T1, mTOR (Homo sapiens, UniProt P42345)
T1 construct: FLAG; made in house
Assay: In Vitro mTOR Kinase Assay (Echo), Test (a)(ii)
Format: biochemical
In short: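 FLAG-tagged truncated mTOR (residues 1362-2549), expressed in HEK293 and purified via the FLAG tag, phosphorylated a biotinylated peptide over 2 hours at room temperature. EDTA stopped the reaction. Phospho-T389 was detected overnight by AlphaScreen using the p70 S6K T389 antibody with Protein A/streptavidin beads; IC50 reported.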

[1] = table of enzyme assay Test (a)(ii), read-out: Test (a)(ii) IC50
[2] = read-out: mTOR Kinase Assay (Echo)

T1 sequence (P42345 1362-2549): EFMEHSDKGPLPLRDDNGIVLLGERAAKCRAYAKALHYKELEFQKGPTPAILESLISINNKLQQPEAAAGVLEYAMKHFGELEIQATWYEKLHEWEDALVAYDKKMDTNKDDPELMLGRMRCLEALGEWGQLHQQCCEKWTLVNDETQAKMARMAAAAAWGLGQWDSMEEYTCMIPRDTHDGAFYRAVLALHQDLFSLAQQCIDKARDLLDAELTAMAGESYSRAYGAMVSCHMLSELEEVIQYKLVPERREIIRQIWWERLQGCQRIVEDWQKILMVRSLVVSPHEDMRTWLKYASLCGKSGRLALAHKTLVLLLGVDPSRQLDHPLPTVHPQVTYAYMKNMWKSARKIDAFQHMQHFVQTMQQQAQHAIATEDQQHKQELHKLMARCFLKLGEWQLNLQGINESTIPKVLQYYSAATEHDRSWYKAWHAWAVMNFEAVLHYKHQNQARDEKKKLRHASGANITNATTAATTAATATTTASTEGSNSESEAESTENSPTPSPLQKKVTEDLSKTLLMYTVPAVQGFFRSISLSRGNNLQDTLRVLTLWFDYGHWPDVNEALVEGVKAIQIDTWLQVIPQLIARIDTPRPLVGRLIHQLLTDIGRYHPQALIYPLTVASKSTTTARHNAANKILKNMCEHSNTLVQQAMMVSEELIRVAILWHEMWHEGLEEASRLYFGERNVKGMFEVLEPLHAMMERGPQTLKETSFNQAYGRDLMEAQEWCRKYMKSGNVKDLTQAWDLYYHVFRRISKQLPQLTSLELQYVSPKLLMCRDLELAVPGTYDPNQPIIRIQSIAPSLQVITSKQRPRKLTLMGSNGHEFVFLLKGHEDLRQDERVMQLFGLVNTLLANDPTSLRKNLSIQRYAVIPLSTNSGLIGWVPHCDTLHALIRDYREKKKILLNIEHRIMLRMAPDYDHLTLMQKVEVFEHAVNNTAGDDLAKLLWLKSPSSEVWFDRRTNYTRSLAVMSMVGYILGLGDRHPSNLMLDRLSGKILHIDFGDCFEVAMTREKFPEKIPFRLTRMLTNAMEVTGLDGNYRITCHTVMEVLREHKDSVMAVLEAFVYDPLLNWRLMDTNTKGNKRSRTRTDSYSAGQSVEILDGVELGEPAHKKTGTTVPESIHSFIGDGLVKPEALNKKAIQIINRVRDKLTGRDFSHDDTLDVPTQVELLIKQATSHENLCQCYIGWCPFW

Row | Structure (SMILES) | pIC50 [1] | pIC50 [2]
1 | C[C@H]1COCCN1c1cc(C2(S(C)(=O)=O)CC2)nc(-c2ccc(NC(=O)Nc3ccon3)cc2)n1 [Example 2g, 1-[4-[4-[(3S)-3-methylmorpholin-4-yl]-6-(1-methylsulfonylcyclopropyl)pyrimidin-2-yl]phenyl]-3-(1,2-oxazol-3-yl)urea] | 9.64 | 9.86
2 | C[C@H]1COCCN1c1cc(C2(S(=O)(=O)c3ccc(Cl)cc3)CCOCC2)nc(-c2ccc(NC(=O)Nc3cnn(C)c3)cc2)n1 [Example 23m, 1-[4-[4-[4-(4-chlorophenyl)sulfonyloxan-4-yl]-6-[(3S)-3-methylmorpholin-4-yl]pyrimidin-2-yl]phenyl]-3-(1-methylpyrazol-4-yl)urea] | 7.24 | –
3 | O=C(Nc1ccc(-c2nc(N3CCOCC3)cc(C3(S(=O)(=O)c4ccccn4)CC3)n2)cc1)NC1CC1 [Example 56, 3-Cyclopropyl-1-[4-[4-morpholin-4-yl-6-(1-Pyridin-2-ylsulfonylcyclopropyl)pyrimidin-2-yl]phenyl]urea] | 8.64 | –
4 | CC(C)NC(=O)Nc1ccc(-c2nc(N3CCOC[C@@H]3C)cc(C3(S(C)(=O)=O)CCCC3)n2)cc1 [Example 4c, 1-[4-[4-[(3S)-3-methylmorpholin-4-yl]-6-(1-methylsulfonylcyclopentyl)pyrimidin-2-yl]phenyl]-3-propan-2-yl-urea] | – | 7.77
5 | C[C@H]1COCCN1c1cc(C2(S(=O)(=O)C3CCOC3)CC2)nc(-c2ccc(NC(=O)Nc3cnn(C)c3)cc2)n1 (stereo partly drawn) [Example 94k, 1-[4-[4-[(3S)-3-methylmorpholin-4-yl]-6-[1-(oxolan-3-ylsulfonyl)cyclopropyl]pyrimidin-2-yl]phenyl]-3-(1-methylpyrazol-4-yl)urea] | 7.97 | –
6 | C[C@H]1COCCN1c1cc(C2(S(=O)(=O)c3ccc(F)cc3F)CC2)nc(-c2ccc(NC(=O)NCCF)cc2)n1 [Example 57c, 1-[4-[4-[1-(2,4-difluorophenyl)sulfonylcyclopro-pyl]-6-[(3S)-3-methylmorpholin-4-yl]pyrimidin-2-yl]phenyl]-3-(2-fluoroethyl)urea] | 8.16 | –
7 | CNC(=O)Nc1ccc(-c2nc(N3CCOC[C@@H]3C)cc(C3(S(=O)(=O)c4ccc(NC)c(Cl)c4)CC3)n2)cc1 [Example 95h, 1-[4-[4-[1-(3-chloro-4-methylamino-phenyl)sulfonylcyclo-propyl]-6-[(3S)-3-methylmorpho-lin-4-yl]pyrimidin-2-yl]phenyl]-3-methylurea] | 7.89 | –
8 | Cc1ccc(F)cc1S(=O)(=O)C1(c2cc(N3CCOC[C@@H]3C)nc(-c3ccc(NC(=O)NCCO)cc3)n2)CC1 [Example 61b, 1-[4-[4-[1-(5-fluoro-2-methylphenyl)sulfonylcyclopropyl]-6-[(3S)-3-methylmorpholin-4-yl]pyrimidin-2-yl]phenyl]-3-(2-hydroxyethyl)urea] | 7.87 | –
9 | C[C@H]1COCCN1c1cc(C2(S(=O)(=O)CCCOC(F)F)CC2)nc(-c2ccc(NC(=O)NCC(F)F)cc2)n1 [Example 96b, 3-(2,2-difluoroethyl)-1-[4-[4-[1-[3-(difluoromethoxy)propylsulfonyl]cycloproyl]-6-[(3S)-3-methylmorpholin-4-yl]pyrimidin-2-yl]phenyl]urea] | 7.57 | –
10 | CC(C)S(=O)(=O)C1(c2cc(N3CCOC[C@@H]3C)nc(-c3ccc(NC(=O)NCCCO)cc3)n2)CC1 [Example 7j, 3-(3-hydroxypropyl)-1-[4-[4-[(3S)-3-methylmorpholin-4-yl]-6-(1-propan-2-ylsulfonylcyclopropyl)pyrimidin-2-yl]phenyl]urea] | – | 7.98
11 | C[C@H]1COCCN1c1cc(C2(S(C)(=O)=O)CCCC2)nc(-c2ccc(NC(=O)NC(C)(C)CO)cc2)n1 [Example 4f, 3-(1-hydroxy-2-methyl-propan-2-yl)-1-[4-[4-[(3S)-3-methylmorpholin-4-yl]-6-(1-methylsulfonylcyclopentyl)pyrimidin-2-yl]phenyl]urea] | – | 8.00
12 | C[C@H]1COCCN1c1cc(C2(S(=O)(=O)C3CC3)CCOCC2)nc(-c2ccc(NC(=O)NCCO)cc2)n1 [Example 23h, 1-[4-[4-(4-cyclopropylsulfonyloxan-4-yl)-6-[(3S)-3-methylmorpholin-4-yl]pyrimidin-2-yl]phenyl]-3-(2-hydroxyethyl)urea] | 8.09 | –
13 | C[C@H](CO)NC(=O)Nc1ccc(-c2nc(N3CCOC[C@@H]3C)cc(C3(S(=O)(=O)C4CC4)CCC3)n2)cc1 [Example 64y, 1-[4-[4-(1-cyclopropylsulfonylcyclobutyl)-6-[(3S)-3-methylmorpholin-4-yl]pyrimidin-2-yl]phenyl]-3-[(2R)-1-hydroxypropan-2-yl]urea] | 7.90 | –

Other lines, results leading:

Row | pIC50 [1] | pIC50 [2] | Structure (SMILES)
14 | 9.18 | – | CCNC(=O)Nc1ccc(-c2nc(N3CCOC[C@@H]3C)cc(C3(S(=O)(=O)C(C)(C)C)CC3)n2)cc1 [Example 18e, 1-[4-[4-(1-tert-butylsulfonylcyclopropyl)-6-[(3S)-3-methylmorpholin-4-yl]pyrimidin-2-yl]phenyl]-3-ethylurea]
15 | 8.36 | – | C[C@H]1COCCN1c1cc(C2(S(=O)(=O)c3ccc(C#N)cc3)CC2)nc(-c2ccc(NC(=O)NCCO)cc2)n1 [Example 77c, 1-[4-[4-[1-(4-cyanophenyl)sulfonylcyclopropyl]-6-[(3S)-3-methylmorpholin-4-yl]pyrimidin-2-yl]phenyl]-3-(2-hydroxyethyl)urea]
16 | 8.08 | – | CNC(=O)Nc1ccc(-c2nc(N3CCOCC3)cc(C3(C(=O)NC4CC4)CC3)n2)cc1 [Example 32b, N-cyclopropyl-1-[2-[4-(methylcarbamoylamino)phenyl]-6-morpholin-4-ylpyrimidin-4-yl]cyclopropane-1-carboxamide]
17 | 8.33 | – | Cc1ccc(S(=O)(=O)C2(c3cc(N4CCOC[C@@H]4C)nc(-c4ccc(NC(=O)NCCF)cc4)n3)CC2)cc1 [Example 95o, 3-(2-fluoro-ethyl)-1-[4-[4-[(3S)-3-methylmorpholin-4-yl]-6-[1-(4-methylphenyl)sulfonylcyclopropyl]pyrimidin-2-yl]phenyl]urea]
18 | 6.33 | – | CCS(=O)(=O)C1(c2cc(N3CCOC[C@@H]3C)nc(-c3ccc(NC(=O)NC4(CO)CC4)cc3)n2)CC1 [Example 36v, 1-[4-[4-(1-ethylsulfonylcyclopropyl)-6-[(3S)-3-methylmorpholin-4-yl]pyrimidin-2-yl]phenyl]-3-[1-(hydroymethyl)cyclopropyl]urea]
19 | 8.33 | – | C[C@H](CO)NC(=O)Nc1ccc(-c2nc(N3CCOC[C@@H]3C)cc(C3(S(=O)(=O)c4ccccc4)CCC3)n2)cc1 [Example 64q, 1-[4-[4-[1-(benzenesulfonyl)cyclobutyl]-6-[(3S)-3-methylmorpholin-4-yl]pyrimidin-2-yl]phenyl]-3-[(2R)-1-hydroxypropan-2-yl]urea]
20 | – | 7.91 | CCS(=O)(=O)C1(c2cc(N3CCOC[C@@H]3C)nc(-c3ccc(NC(=O)NCCCO)cc3)n2)CC1 [Example 11j, 1-[4-[4-(1-ethylsulfonylcyclopropyl)-6-[(3S)-3-methylmorpholin-4-yl]pyrimidin-2-yl]phenyl]-3-(3-hydroxypropyl)urea]
21 | – | 8.48 | C[C@H]1COCCN1c1cc(C2(S(C)(=O)=O)CCC2)nc(-c2ccc(NC(=O)Nc3ccc(C(F)(F)F)cc3)cc2)n1 [Example 5k, 1-[4-[4-[(3S)-3-methylmorpholin-4-yl]-6-(1-methylsulfonylcyclobutyl)pyrimidin-2-yl]phenyl]-3-[4-(trifluoromethyl)phenyl]urea]
